Experimental data taken from publication PMC9775191, “A Subset Screen of the Compounds Australia Scaffold Library Identifies 7-Acylaminodibenzoxazepinones as Potent and Selective Hits for Anti-Giardia Drug Discovery” (Biomedicines, 2022).

Tested on: G. duodenalis BRIS/91/HEPU/1279
Assay: Primary Giardia screen at 10 µM (live-cell imaging, automated counting)
Type: cell-based, Giardia duodenalis
Conditions: 24 h
In short: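 One concentration, 10 μM, is screened per compound in singlicate under microaerophilic gas (3% O2, 5% CO2, N2). Inhibition comes from automated image-based counts at 24 and 48 h, relative to 0.2% DMSO controls.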

| Compound | Average % Inhibition 24h [%] |
| --- | --- |
| COc1ccc2oc(-c3noc(C(=O)NCCN4CCCCCC4)n3)c(C)c2c1 [SN00795214] | 11.6 |

Same assay, conditions: 24 h, first singlicate assay

| Compound | % Inhibition n=1 24h [%] |
| --- | --- |
| COc1ccc2oc(-c3noc(C(=O)NCCN4CCCCCC4)n3)c(C)c2c1 [SN00795214] | 16.8 |

Same assay, conditions: 24 h, re-assessment

| Compound | % Inhibition n=2 24h [%] |
| --- | --- |
| COc1ccc2oc(-c3noc(C(=O)NCCN4CCCCCC4)n3)c(C)c2c1 [SN00795214] | 6.3 |

Same assay, conditions: 48 h

| Compound | Average % Inhibition 48h [%] |
| --- | --- |
| COc1ccc2oc(-c3noc(C(=O)NCCN4CCCCCC4)n3)c(C)c2c1 [SN00795214] | 56.6 |

Same assay, conditions: 48 h, first singlicate assay

| Compound | % Inhibition n=1 48h [%] |
| --- | --- |
| CC(=O)N1N=C2C3CCN(CC3)[C@@H]2[C@@H]1c1cccc2ccccc12 (relative stereo) [SN00783777] | 0.0 |
| O=C(Nc1cccc(C(=O)N2CCCC2C(=O)NCCc2ccccc2)c1)c1cccs1 (stereo not drawn) [SN00794771] | 3.7 |
| COc1ccc(CN2CCCN(c3ncnc4ccccc34)CC2)cc1 [SN00775453] | 0.0 |
| Cc1ccc(S(=O)(=O)C2(C(=O)Nc3cn[nH]c3)CCC2)cc1 [SN00778835] | 0.0 |
| CC(=O)NC1CCCN(C(=O)c2cc3c(C)nn(Cc4ccc(F)cc4)c3s2)C1 (stereo not drawn) [SN00774438] | 0.0 |
| O=S(=O)(c1cccc(F)c1)N1CC(OCc2cccc(F)c2)C1 [SN00792818] | 10.0 |
| CCn1cc(CN2CCCN(C(=O)c3cc(C4CC4)on3)CC2)cn1 [SN00778709] | 0.0 |
| COc1ccc2cc(-c3csc(Cc4nc(-c5ccccn5)no4)n3)c(=O)oc2c1 [SN00797738] | 2.5 |
| CCCCn1nnnc1CN1CCCC1Cn1cncn1 (stereo not drawn) [SN00782373] | 0.0 |
| CCn1cc(CN2CCCN(C(=O)C(C)n3cncn3)CC2)cn1 (stereo not drawn) [SN00782395] | 0.0 |
| Cc1ccc(C(=O)N2CCN(c3nc4ccccc4n4cccc34)CC2)cc1 [SN00785395] | 25.5 |
| CC(C)C(=O)N1CCc2c(c(COCc3ccccc3F)nn2C)C1 [SN00796410] | 0.0 |
| Nc1nc(N2CCN(C(=O)c3ccco3)CC2)ncc1C(=O)Nc1ccccc1 [SN00798744] | 0.0 |
| Cc1ccc(NC(=O)Cn2nnc(-c3nc(-c4ccncc4)no3)c2N)cc1 [SN00788097] | 7.5 |
| O=C(Cc1noc(-c2ccoc2)n1)NC1CCCCC1 [SN00773041] | 3.1 |
| CC(C)(C)c1ccc(C(=O)N2CCC3(CC2)NC(c2ccccc2)=NO3)cc1 [SN00801741] | 0.0 |
| O=C(Cn1cnc([N+](=O)[O-])n1)NCCc1ccccc1 [SN00783937] | 33.8 |
| Cc1c(C(=O)N2CCOCC2C)nnn1-c1cccc2c1CCN(Cc1ccccc1)C2 (stereo not drawn) [SN00779590] | 5.5 |
| CC1Cc2cc(S(=O)(=O)N3CCn4c3nc3ccccc34)ccc2N1C(=O)C1CCC1 (stereo not drawn) [SN00788031] | 10.8 |
| Cc1nc(S(=O)(=O)c2ccc(Br)cc2)c(NCc2ccccc2)o1 [SN00793357] | 27.4 |
| CC(=O)Nc1ccc(C(=O)OCc2cc(-c3cccs3)on2)s1 [SN00777515] | 14.0 |
| O=C(NCCCN1CCCC1)c1ccc2c(c1)N(CC(=O)N1CCCC1)C(=O)CO2 [SN00791845] | 0.0 |
| COc1ccc(-c2ccnc3c(C(=O)NCc4ccc5c(c4)OCO5)cnn23)cc1OC [SN00802455] | 16.8 |
| O=C(c1ccc(F)cc1)N1CCc2[nH]nc(C(=O)N3CCN(c4ccc(F)cc4)CC3)c2C1 [SN00802630] | 0.9 |
| O=c1c2cccnc2n(Cc2cc(=O)n3ccccc3n2)c(=O)n1CCc1ccccc1 [SN00784337] | 7.3 |
| Cc1oc2ncn(C(C)c3ccccc3)c(=O)c2c1C(=O)Nc1ccc(S(N)(=O)=O)nc1 (stereo not drawn) [SN00788415] | 0.0 |
| Cc1nc(-c2ccc(C(=O)N3CCCC3C(=O)Nc3ccc(C(C)C)cc3)cc2)no1 (stereo not drawn) [SN00793315] | 0.0 |

| Compound | % Inhibition n=1 48h [%] |
| --- | --- |
| CCOC(=O)c1cc(-c2ccccc2)n(CCC(=O)N2CCn3c2nc2ccccc23)c1C [SN00794728] | 10.1 |
| CC(C)c1ccc(S(=O)(=O)N2CCN(c3cc(=O)n4nc(-c5ccccc5)sc4n3)CC2)cc1 [SN00789595] | 0.0 |
| Cc1ccc(CNC(=O)c2ccc3c(c2)CCN3S(=O)(=O)c2ccc(C)cc2)cc1 [SN00785985] | 38.5 |
| CCn1c(C)c(C2=CCN(S(=O)(=O)c3ccc(F)cc3)CC2)c2ccccc21 [SN00785221] | 17.2 |
| O=C(c1ccco1)N1CCC(OCc2nc(-c3ccncc3)no2)CC1 [SN00801147] | 18.6 |
| O=C(c1ccc2[nH]cnc2c1)N1CCN(Cc2cccc(Cl)c2)CC1 [SN00774568] | 0.0 |
| Cc1cccc(OCC(=O)N2CCN(Cc3nnsc3Cl)CC2)c1C [SN00777844] | 35.2 |
| CCC(C)NC(=O)c1cc2c(=O)n(Cc3ccccc3)ccc2s1 (stereo not drawn) [SN00797832] | 11.3 |
| Cc1ncc2c(n1)CN(C(C)c1nnc(-c3ccccc3)o1)CC2 (stereo not drawn) [SN00807918] | 13.7 |
| Cc1cc2n(n1)CCCN2CC(=O)N1CCN(c2ccc(Cl)cc2)CC1 [SN00791741] | 2.4 |
| CN(C)c1nc(N(C)C)nc(N2CC(=O)N(c3ccc(Cl)c(Cl)c3)C2=N)n1 [SN00783378] | 16.0 |
| CCC(=O)N1N=C2C3CCN(CC3)[C@@H]2[C@@H]1c1cccc(OC)c1OC [SN00785687] | 13.8 |
| O=C([C@H]1C[C@H]2CCCN2[C@@]12C(=O)Nc1ccccc12)N1CCN(c2ccccc2)CC1 [SN00787657] | 16.0 |
| CN(C)S(=O)(=O)c1ccc2c(c1)cc(C(=O)NCCCN1CCc3ccccc3C1)n2C [SN00792874] | 0.0 |
| COc1ccc(NC(=O)N2CCN(c3cc(C)nc(N4CCOCC4)n3)CC2)cc1 [SN00786878] | 44.4 |
| O=C(NCCCN1CCCCC1)c1cc(-c2cccs2)nc2ccccc12 [SN00784290] | 13.3 |
| CSc1ccc(CCNC(=O)c2ccc3c(c2)nc2n3CCOC2)cc1 [SN00792852] | 12.8 |
| Cc1cc(C(=O)N2CCCN(Cc3cnn(C)c3)CC2)on1 [SN00782463] | 0.0 |
| Cc1sc2ncn(CC3CCCO3)c(=O)c2c1C(=O)Nc1ccc(S(N)(=O)=O)nc1 (stereo not drawn) [SN00793191] | 0.0 |
| COc1ccc(OCC(=O)N2CCN(Cc3ccc(C)cc3)c3ncccc32)cc1 [SN00790421] | 6.7 |
| CC(=O)N1CCC2(CC1)OC(=O)C(C)=C2C(=O)NC1CC1 [SN00787857] | 0.0 |
| CCNC(=O)C1CCCN1C(=O)c1cccc(NC(=O)c2ccc(Br)cc2)c1 (stereo not drawn) [SN00794777] | 0.0 |
| Cc1ccc(S(=O)(=O)NC2CCN(C(=O)Cc3ccc(Br)cc3)CC2)cc1 [SN00795227] | 3.1 |
| CC(C)c1ccc(-c2noc(N3CCC(C(=O)N4CCN(C5CCCCC5)CC4)CC3)n2)cc1 [SN00793072] | 11.6 |
| Cc1cc(C)cc(N2CCN(CCCNC(=O)c3nc(-c4ccncn4)no3)CC2)c1 [SN00802991] | 0.0 |
| O=S(=O)(Cc1ccc(Cl)cc1)c1nc2ccccc2nc1N1CCC2(CC1)OCCO2 [SN00794883] | 15.2 |
| CCCCn1c(=O)[nH]c(=O)c2c1nc(-c1ccc(-c3ccc([N+](=O)[O-])cc3Cl)o1)n2C [SN00775787] | 19.8 |

| Compound | % Inhibition n=1 48h [%] |
| --- | --- |
| Cc1ccc(-c2nc(-c3cccnc3)sc2CC(=O)Nc2ccc3nc(C)sc3c2)cc1 [SN00774529] | 0.0 |
| COc1ccccc1-c1nc(C2CCN(C(=O)COc3ccccc3)CC2)no1 [SN00796215] | 15.9 |
| O=S(=O)(c1ccc(Br)cc1)c1nc(-c2ccccc2)oc1N1CCOCC1 [SN00785745] | 4.0 |
| O=C(Cc1ccc2c(c1)CCC2)N1CCC(n2cncn2)CC1 [SN00783222] | 6.3 |
| CSc1ccc(-c2noc(-c3ccc4c(=O)n(Cc5ccccc5)c(=O)[nH]c4c3)n2)cc1 [SN00789400] | 6.5 |
| COc1ccc(CNC(=O)N2CCN(C)CC2c2ccccc2)cn1 (stereo not drawn) [SN00782363] | 0.0 |
| Cc1ccc(NS(=O)(=O)c2ccc(-c3nnc(C)o3)s2)cc1 [SN00789919] | 5.1 |
| O=C(c1nnn(-c2ccccc2Cl)c1-c1ccncc1)N1CCc2ccccc2C1 [SN00796355] | 30.9 |
| COc1ccc(CN2CCC3(CC2)N=C(c2ccc(C)cc2)C(=O)N3)cc1 [SN00792212] | 16.2 |
| c1ccc(-n2nnnc2N2CCN(C3CC3)CC2)cc1 [SN00770081] | 0.0 |
| O=C(NCc1ccc(Cl)cc1)c1noc2c1CCCC2 [SN00784503] | 0.0 |
| Cc1noc(CN2C(=O)NC(C)(c3ccccc3)C2=O)n1 (stereo not drawn) [SN00774045] | 0.0 |
| CCCOc1ccc(-c2noc(Cc3nc(-c4cccc(OC)c4)cs3)n2)cc1 [SN00797723] | 4.6 |
| CC(=O)N1CCN(Cc2nc3cc(Cl)ccc3n2C)CC1 [SN00773871] | 0.0 |
| c1cncc(-c2nc(Sc3nnnn3CC3CCCO3)c3ccccc3n2)c1 (stereo not drawn) [SN00771230] | 11.8 |
| COc1ccc(S(=O)(=O)N2CC=C(C(=O)NCc3ccc(C)cc3)CC2)cc1 [SN00785474] | 23.4 |
| CCc1nnsc1C(=O)N1CCCN(Cc2cnn(CC)c2)CC1 [SN00782455] | 0.0 |
| CC1CC(C)CN(CCCNC(=O)C2CC3CCCN3C23C(=O)Nc2ccccc23)C1 (stereo not drawn) [SN00787674] | 38.8 |
| Cc1csc(C2(NC(=O)Nc3ccc4c(c3)CCO4)CCC2)n1 [SN00772607] | 20.7 |
| Cc1sc2cc(C(=O)NC(C)(C)C)[nH]c2c1CN1CCOCC1 [SN00798503] | 2.4 |
| CC(=O)N1CCCc2cc(S(=O)(=O)N3CCN(c4ccc(F)cc4)CC3)ccc21 [SN00793330] | 0.2 |
| COc1ccc(OCCn2c(NC(=O)c3ccc(OC)cc3)nc3ccccc32)cc1 [SN00783884] | 19.5 |
| COc1ccc(-n2nnnc2C2(N3CCOCC3)CCCCC2)cc1 [SN00794159] | 0.0 |
| CC(C)n1cc2cc(C(=O)NCCCN3CCCc4ccccc43)sc2c1 [SN00802034] | 3.6 |
| COc1ccc2oc(-c3noc(C(=O)NCCN4CCCCCC4)n3)c(C)c2c1 [SN00795214] | 52.1 |

Same assay, conditions: 48 h, re-assessment

| Compound | % Inhibition n=2 48h [%] |
| --- | --- |
| COc1ccc2oc(-c3noc(C(=O)NCCN4CCCCCC4)n3)c(C)c2c1 [SN00795214] | 61.1 |
